Data published in US20220204497A1, “NOVEL COMPOUND HAVING ANTICANCER ACTIVITY, AND METHOD FOR PRODUCING SAME” (MEDICINAL BIOCONVERGENCE RESEARCH CENTER, priority 2019, published 2022).

Assays:
[1] = biological target: T1, AIMP2-DX2 (Homo sapiens, UniProt Q13155); test: DX2-nanoluciferase assay (DX2 expression change) in transfected A549 cells; conditions: for inhibition at 10 µM / inhibition at 40 µM: A549, 4 h; for inhibition at 10 µM: read-out: DX-Nanoluciferase activity (10 μM), 10 μM, 4 hours treatment, A549 cells transfected with nanoluciferase-DX2; for inhibition at 40 µM: read-out: DX-Nanoluciferase activity (40 μM), 40 μM, 4 hours treatment, A549 cells transfected with nanoluciferase-DX2; for inhibition at 40 µM / DX-Nanoluciferase activity (40 μM): inhibitory effect on AIMP2-DX2 expression
T1 sequence (Q13155 1-251 isoform Q13155-2): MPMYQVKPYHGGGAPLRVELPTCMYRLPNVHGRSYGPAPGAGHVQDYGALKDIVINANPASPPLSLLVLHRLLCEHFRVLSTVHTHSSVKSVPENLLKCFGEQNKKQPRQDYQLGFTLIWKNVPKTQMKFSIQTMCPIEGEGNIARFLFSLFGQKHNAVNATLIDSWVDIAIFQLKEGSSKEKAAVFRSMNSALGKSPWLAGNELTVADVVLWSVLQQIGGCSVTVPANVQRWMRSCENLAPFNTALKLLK
Procedure: After cloning DX2 into a plasmid expressing nanoluciferase, the plasmid was transfected into A549 cells. Transfected cells were seeded 1×10^4 per well in a 96-well plate and stabilized for 12 hours. […] Cell viability was measured by the MTT method after 72 hours of treatment with each concentration of the compound in A549 cells.

[2] = system: A549 cells; test: Cell viability by MTT method in A549 cells; assay type: cell-based; set-up: concentration or dose not given beside the values; conditions: 72 hours treatment
[3] = 4 hours treatment, A549 cells transfected with nanoluciferase-DX2

Structure (SMILES)	inhibition at 10 µM [1] [%]	Cell Viability (% inhibition) (A549) [2] [%]	inhibition at 40 µM [1] [%]	DX-Nanoluciferase activity (10 μM) ([1]; 10 μM, 4 hours treatment, A549 cells transfected with nanoluciferase-DX2)	DX-Nanoluciferase activity (40 μM) [1, 3]
COC(=O)c1ccc(S(=O)(=O)N[C@@H](Cc2c[nH]c3ccccc23)C(=O)Nc2ccc(N3CCOCC3)cc2)cc1 [Compound 113, (S)-Methyl 4-(N-(3-(1H-indol-3-yl)-1-(4-morpholinophenylamino)-1-oxopropan-2-yl)sulfamoyl)benzoate]	15.1 ± 6.22	4.67 ± 3.85	–	–	–
CC(C)C[C@H](NC(=O)CCS(=O)(=O)c1ccccc1)C(=O)N1CCOCC1 [Compound 58, (S)—N-(4-Methyl-1-morpholino-1-oxopentan-2-yl)-3-(phenylsulfonyl)propanamide]	–	−0.81 ± 4.95	63.1 ± 4.5	–	–
Cc1ccc(S(=O)(=O)N[C@@H](CC(C)C)C(=O)N2CCC[C@@H]2CO)cc1 [Compound 6, N—((S)-1-((R)-2-(hydroxymethyl)pyrrolidin-1-yl)-4-methyl-1-oxopentan-2-yl)-4-methylbenzenesulfonamide]	–	15.98	39.9 ± 7.4	–	–
CC(C)C[C@H](NS(=O)(=O)c1ccc(C(=O)OCc2ccccc2)cc1)C(=O)N1CCOCCOCCOCC1 [Compound 36, (S)-benzyl 4-(N-(4-methyl-1-oxo-1-(1,4,7-trioxa-10-azacyclododecan-10-yl)pentan-2-yl)sulfamoyl)benzoate]	–	64.40 ± 2.96	36.8 ± 2.25	–	–
COc1ccc(-c2csc(NC(=O)[C@H](CC(C)C)NS(=O)(=O)c3ccc(C)cc3)n2)cc1OC [Compound 91, (S)—N-(4-(3,4-dimethoxyphenyl)thiazol-2-yl)-4-methyl-2-(4-methylphenylsulfonamido)pentanamide]	–	87.36 ± 2.13	16.4 ± 8.65	–	–
Cc1ccc(S(=O)(=O)N[C@@H](CC(C)C)C(=O)Nc2ccc(N3C[C@@H](C)O[C@@H](C)C3)nc2)cc1 [Compound 13, (S)—N-(6-((2S,6R)-2,6-dimethylmorpholino)pyridin-3-yl)-4-methyl-2-(4-methylphenylsulfonamido)pentanamide]	–	14.99	51.3 ± 4	–	–
Cc1ccc(S(=O)(=O)N[C@@H](CC(C)C)C(=O)Nc2nc(-c3ccc(O)cc3)cs2)cc1 [Compound 96, (S)—N-(4-(4-hydroxyphenyl)thiazol-2-yl)-4-methyl-2-(4-methylphenylsulfonamido)pentanamide]	–	93.07 ± 5.89	36.8 ± 9.16	–	–
Cc1ccc(-c2csc(NC(=O)[C@H](Cc3c[nH]c4ccccc34)NS(=O)(=O)c3ccc(Br)cc3)n2)cc1 [Compound 187, (S)-2-(4-Bromophenylsulfonamido)-3-(1H-indol-3-yl)-N-(4-(p-tolyl)thiazol-2-yl)propanamide]	34.9 ± 10.6	61.41 ± 4.21	–	–	–
O=C(O)[C@H](Cc1c[nH]c2ccccc12)NS(=O)(=O)c1ccc(Br)cc1 [Compound 85, (S)-2-(4-Bromophenylsulfonamido)-3-(1H-indol-3-yl)propanoic acid]	–	10.28 ± 3.54	20.2 ± 1.65	–	–
Cc1ccc(S(=O)(=O)N[C@@H](Cc2c[nH]c3ccccc23)C(=O)NCCc2c[nH]c3ccccc23)cc1 [Compound 222, (S)—N-(2-(1H-indol-3-yl)ethyl)-3-(1H-indol-3-yl)-2-(4-methylphenylsulfonamido)propanamide]	31.3 ± 14.7	91.05 ± 1.38	–	–	–
Cc1ccc(S(=O)(=O)N[C@@H](Cc2c[nH]c3ccccc23)C(=O)O)cc1 [Compound 119, (S)-3-(1-Indol-3-yl)-2-(4-methylphenylsulfonamido)propanoic acid]	–	1.59 ± 8.71	–	14.92 ± 10.18	–
Cc1ccc(S(=O)(=O)N[C@@H](Cc2c[nH]c3ccccc23)C(=O)Nc2ncc(N3CCOCC3)s2)cc1 [Compound 71, (S)-3-(1H-indol-3-yl)-2-(4-methylphenylsulfonamido)-N-(5-morpholinothiazol-2-yl)propan amide]	–	72.71 ± 0.97	–	–	54.64 ± 13.30
Cc1ccc(S(=O)(=O)N[C@@H](CC(C)C)C(=O)Nc2nc(-c3ccc(F)cc3)cs2)cc1 [Compound 94, (S)—N-(4-(4-fluorophenyl)thiazol-2-yl)-4-methyl-2-(4-methylphenylsulfonamido)pentanamide]	–	101.42 ± 0.79	11.5 ± 7.25	–	–
CC(C)(C)OC(=O)N[C@@H](Cc1c[nH]c2ccccc12)C(=O)Nc1ccc(N2CCOCC2)cc1 [Compound 118, (S)-tert-Butyl 3-(1H-Indol-3-yl)-1-(4-morpholinophenylamino)-1-oxopropan-2-ylcarbamate]	8.22 ± 5.02	9.26 ± 7.63	–	–	–
Cc1ccc(S(=O)(=O)N[C@@H](CC(C)C)C(=O)Nc2ccc(N3CCC(C)CC3)nc2)cc1 [Compound 9, (S)-4-Methyl-2-(4-methylphenylsulfonamido)-N-(6-(4-methylpiperidin-1-yl)pyridin-3-yl)pentanamide]	–	78.3	18.3	–	–
Cc1ccc(S(=O)(=O)N[C@@H](Cc2ccccc2)C(=O)N2CCOCC2)cc1 [Compound 38, (S)-4-methyl-N-(1-morpholino-1-oxo-3-phenylpropan-2-yl)benzenesulfonamide]	–	15.14 ± 1.24	32.3 ± 2.6	–	–
Cc1ccc(C(=O)N[C@@H](Cc2c[nH]c3ccccc23)C(=O)Nc2ccc(N3CCOCC3)cc2)cc1 [Compound 129, (S)—N-(3-(1 Indol-3-yl)-1-(4-morpholinophenylamino)-1-oxopropan-2-yl)-4-methylbenzamide]	–	60.35 ± 3.98	–	–	53.02 ± 9.60
CC(C)C[C@H](NS(=O)(=O)c1cccc([N+](=O)[O-])c1)C(=O)N1CCOCC1 [Compound 19, (S)—N-(4-methyl-1-morpholino-1-oxopentan-2-yl)-3-nitrobenzenesulfonamide]	–	22.61	33.8 ± 8.2	–	–
O=C(NC12CC3CC(CC(C3)C1)C2)[C@H](Cc1c[nH]c2ccccc12)NS(=O)(=O)c1ccc(Br)cc1 [Compound 201, (S)—N((3R,5R,7R)-adamantan-1-yl)-2-(4-bromophenylsulfonamido)-3-(1H-Indol-3-yl)propanamide]	–	87.1 ± 0.46	–	–	58.25 ± 4.09
Cc1ccc(S(=O)(=O)N[C@@H](Cc2c[nH]c3ccccc23)C(=O)Nc2ccc(N3C[C@@H](C)O[C@@H](C)C3)nc2)cc1 [Compound 75, (S)—N-(6-((2S,6R)-2,6-dimethylmorpholino)pyridin-3-yl)-3-(1H-indol-3-yl)-2-(4-methylphenylsulfonamido)propanamide]	–	79.58 ± 3.72	57.8 ± 8	–	–
Cc1ccc(S(=O)(=O)N[C@@H](Cc2c[nH]c3ccccc23)C(=O)Nc2nc3ccccc3s2)cc1 [Compound 84, (S)—N-(benzo[d]thiazol-2-yl)-3-(1H-indol-3-yl)-2-(4-methylphenylsulfonamido)propanamide]	–	20.93 ± 11.89	-15.8 ± 6.29	–	–
Cc1ccc(S(=O)(=O)N[C@H](CC(C)C)C(=O)N2CCOCCOCCOCC2)cc1 [Compound 4, (R)-4-methyl-N-(4-methyl-1-oxo-1-(1,4,7-trioxa-10-azacyclododecan-10-yl)-Pentan-2-yl)benzenesulfonamide]	–	15.11	10.7 ± 12.8	–	–
COc1ccc(-c2csc(NC(=O)[C@H](Cc3c[nH]c4ccccc34)NS(=O)(=O)c3ccc(C(C)C)cc3)n2)cc1 [Compound 82, (S)-3-(1H-indol-3-yl)-2-(4-isopropylphenylsulfonamido)-N-(4-(4-methoxyphenyl)thiazol-2-yl)propanamide]	–	96.64 ± 0.09	29.3 ± 2.7	–	–
CC(C)C[C@H](NS(=O)(=O)c1ccc(O)cc1)C(=O)N1CCOCCOCCOCC1 [Compound 35, (S)-4-hydroxy-N-(4-methyl-1-oxo-1-(1,4,7-trioxa-10-azacyclododecan-10-yl)pentan-2-yl)benzenesulfonamide]	–	−1.97 ± 14.7	41.9 ± 1.66	–	–
COc1ccc(-c2nnc(NC(=O)[C@H](CC(C)C)NS(=O)(=O)c3ccc(C)cc3)s2)cc1 [Compound 87, (S)—N-(5-(4-methoxyphenyl)-1,3,4-thiadiazol-2-yl)-4-methyl-2-(4-methylphenylsulfonamido)pentanamide]	–	36.61 ± 3.85	50.2 ± 7.05	–	–
CC(C)c1ccc(S(=O)(=O)N[C@@H](Cc2c[nH]c3ccccc23)C(=O)Nc2ccc(N3CCOCC3)cc2)cc1 [Compound 81, (S)-3-(1 Indol-3-yl)-2-(4-isopropylphenylsulfonamido)-N-(4 morpholinophenyl)propanamide]	–	73.98 ± 0.39	–	–	77.74 ± 6.75
Cc1cc(C)cc(S(=O)(=O)N[C@@H](Cc2c[nH]c3ccccc23)C(=O)Nc2ccc(N3CCOCC3)cc2)c1 [Compound 66, (S)-2-(3,5-Dimethylphenylsulfonamido)-3-(1H-indol-3-yl)-N-(4 morpholinophenyl)propanamide]	–	77.25 ± 0.82	42.4 ± 3.97	–	–
